Test results published in US10206937B2, “Boronic acid derivatives and therapeutic uses thereof” (Qpex Biopharma, Inc., priority 2014, dated 2019).

How the values were obtained:
NDM-1 [1] = target: T1, NDM-1 (Klebsiella pneumoniae, UniProt C7C422); assay: biochemical; conditions: cleavage of imipenem (100 uM) by NDM-1; read-out: Ki, Imipenem
VIM-1 = target: T2, VIM-1 (Pseudomonas aeruginosa, UniProt A0A0F7KYQ8); assay: biochemical; conditions: cleavage of nitrocefin (200 uM) by VIM-1 supernatant
T2 construct: made in house; host or cells: ECM6711 strain carrying pUCP24-VIM-1 plasmid; culture supernatant used unpurified

NDM-1 [2] = target: T1, NDM-1; assay: Inhibition of purified class B carbapenemase NDM-1 (Ki, imipenem substrate); type: biochemical; conditions: NDM-1, substrate imipenem; read-out: Ki NDM-1, Imipenem
[3] = target: purified class A, C and D enzymes (Enterobacter cloacae, UniProt P05364); type: biochemical; conditions: purified P99/AmpC of ECL; nitrocefin reporter substrate
Sequence of purified class A, C and D enzymes (Enterobacter cloacae, UniProt P05364) (P05364 21-381): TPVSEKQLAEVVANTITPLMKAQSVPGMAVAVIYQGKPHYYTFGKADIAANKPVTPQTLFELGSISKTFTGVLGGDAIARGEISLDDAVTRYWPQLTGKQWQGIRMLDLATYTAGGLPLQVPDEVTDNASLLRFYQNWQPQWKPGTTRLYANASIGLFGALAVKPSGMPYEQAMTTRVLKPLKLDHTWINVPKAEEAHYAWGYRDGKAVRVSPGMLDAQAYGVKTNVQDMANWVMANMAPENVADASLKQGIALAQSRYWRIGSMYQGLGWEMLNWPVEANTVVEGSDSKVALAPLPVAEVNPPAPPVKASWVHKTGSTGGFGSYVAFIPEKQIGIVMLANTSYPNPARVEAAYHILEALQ

[4] = target: purified class A, C and D enzymes (Escherichia coli, UniProt Q9L5C7); type: biochemical; conditions: purified CTX-M-14; nitrocefin reporter substrate
Sequence of purified class A, C and D enzymes (Escherichia coli, UniProt Q9L5C7) (Q9L5C7 entry or part of it): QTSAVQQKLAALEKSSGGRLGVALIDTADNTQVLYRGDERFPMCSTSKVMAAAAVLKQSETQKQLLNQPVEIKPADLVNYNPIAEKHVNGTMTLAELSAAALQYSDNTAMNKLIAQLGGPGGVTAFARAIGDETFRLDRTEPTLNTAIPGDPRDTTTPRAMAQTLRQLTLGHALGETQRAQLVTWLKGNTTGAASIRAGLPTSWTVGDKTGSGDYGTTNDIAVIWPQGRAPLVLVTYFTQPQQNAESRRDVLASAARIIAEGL

[5] = target: T3, purified class A, C and D enzymes (UniProt P0AD64, L31Q/G234S/E235K, species not given); type: biochemical; conditions: read-out: Ki (SHV-12, NCF); purified SHV-12; nitrocefin reporter substrate
T3 construct: Ki (SHV-12, NCF); other: purified SHV-12; nitrocefin reporter substrate
T3 sequence (P0AD64 1-286 L31Q/G234S/E235K): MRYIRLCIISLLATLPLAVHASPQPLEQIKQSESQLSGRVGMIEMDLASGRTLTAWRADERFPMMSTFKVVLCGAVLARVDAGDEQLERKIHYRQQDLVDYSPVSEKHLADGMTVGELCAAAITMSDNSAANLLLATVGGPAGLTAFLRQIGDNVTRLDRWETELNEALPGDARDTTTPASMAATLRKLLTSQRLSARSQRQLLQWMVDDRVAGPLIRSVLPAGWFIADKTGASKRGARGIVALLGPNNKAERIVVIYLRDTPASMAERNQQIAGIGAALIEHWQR

[6] = target: T4, purified class A, C and D enzymes (UniProt Q6XEC0); type: biochemical; conditions: read-out: Ki (OXA-48, NCF); purified OXA-48; nitrocefin reporter substrate
T4 construct: rows headed: Ki (OXA-48, NCF); other: purified OXA-48; nitrocefin reporter substrate

[7] = target: T5, purified class A, C and D enzymes (UniProt Q9F663); type: biochemical; conditions: read-out: Ki (KPC-2, NCF); purified KPC-2; nitrocefin reporter substrate
T5 construct: rows headed: Ki (KPC-2, NCF); other: purified KPC-2; nitrocefin reporter substrate

T1 sequence (C7C422 29-270, looked up, species assumed): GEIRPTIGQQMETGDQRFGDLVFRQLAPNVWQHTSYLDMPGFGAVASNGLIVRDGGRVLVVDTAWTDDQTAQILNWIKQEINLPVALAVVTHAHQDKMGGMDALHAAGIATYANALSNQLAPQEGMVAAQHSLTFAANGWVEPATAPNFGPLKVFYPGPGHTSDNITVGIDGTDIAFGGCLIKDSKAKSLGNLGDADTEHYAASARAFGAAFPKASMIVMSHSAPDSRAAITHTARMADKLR

| Compound | Ki (NDM-1 [1]) | IC50 (VIM-1) | Ki (NDM-1 [2]) | Ki (P99/AmpC of ECL, NCF) [3] | Ki (CTX-M-14, NCF) [4] | Ki [5] | Ki [6] | Ki [7] |
| --- | --- | --- | --- | --- | --- | --- | --- | --- |
| COc1ccc2c(c1C(=O)O)OB(O)[C@@H](Sc1nnc(NC(CN)CN)s1)C2 [Compound 102, (3R)-3-[[5-[[2-amino-1-(aminomethyl)ethyl]amino]-1,3,4-thiadiazol-2-yl]sulfanyl]-2-hydroxy-7-methoxy-3,4-dihydro-1,2-benzoxaborinine-8-carboxylic acid] | < 10 nM | < 1000 nM | < 10 nM | Z (Greater than 1 μM) | X (Less than 0.1 μM) | < 100 nM | 100 to 1000 nM | > 1000 nM |
| COc1ccc2c(c1C(=O)O)OB(O)[C@@H](Sc1nnc(N[C@H]3CCNC3)s1)C2 [Compound 103, (3R)-2-hydroxy-7-methoxy-3-[[5-[[(3S)-pyrrolidin-3-yl]amino]-1,3,4-thiadiazol-2-yl]sulfanyl]-3,4-dihydro-1,2-benzoxaborinine-8-carboxylic acid] | < 10 nM | < 1000 nM | < 10 nM | Y (0.1 μM to 1 μM) | X (Less than 0.1 μM) | < 100 nM | < 100 nM | 100 to 1000 nM |
| COc1ccc2c(c1C(=O)O)OB(O)[C@@H](Sc1nnc(NC3CCNCC3)s1)C2 [Compound 104, (3R)-2-hydroxy-7-methoxy-3-[[5-(4-piperidylamino)-1,3,4-thiadiazol-2-yl]sulfanyl]-3,4-dihydro-1,2-benzoxaborinine-8-carboxylic acid] | < 10 nM | < 1000 nM | < 10 nM | Y (0.1 μM to 1 μM) | X (Less than 0.1 μM) | < 100 nM | < 100 nM | < 100 nM |
| COc1ccc2c(c1C(=O)O)OB(O)[C@@H](Sc1nnc(NCCNC3CNC3)s1)C2 [Compound 105, (3R)-3-[[5-[2-(azetidin-3-ylamino)ethylamino]-1,3,4-thiadiazol-2-yl]sulfanyl]-2-hydroxy-7-methoxy-3,4-dihydro-1,2-benzoxaborinine-8-carboxylic acid] | < 10 nM | < 1000 nM | < 10 nM | Y (0.1 μM to 1 μM) | X (Less than 0.1 μM) | < 100 nM | < 100 nM | 100 to 1000 nM |
| COc1ccc2c(c1C(=O)O)OB(O)[C@@H](Sc1nnc(SCCN)s1)C2 [Compound 107, (3R)-3-[[5-(2-aminoethylsulfanyl)-1,3,4-thiadiazol-2-yl]sulfanyl]-2-hydroxy-7-methoxy-3,4-dihydro-1,2-benzoxaborinine-8-carboxylic acid] | < 10 nM | < 1000 nM | < 10 nM | Y (0.1 μM to 1 μM) | X (Less than 0.1 μM) | < 100 nM | < 100 nM | 100 to 1000 nM |
| COc1ccc2c(c1C(=O)O)OB(O)[C@@H](Sc1nnc(SC3CNC3)s1)C2 [Compound 108, (3R)-3-[[5-(azetidin-3-ylsulfanyl)-1,3,4-thiadiazol-2-yl]sulfanyl]-2-hydroxy-7-methoxy-3,4-dihydro-1,2-benzoxaborinine-8-carboxylic acid] | 10 to 100 nM | < 1000 nM | 10 to 100 nM | Y (0.1 μM to 1 μM) | X (Less than 0.1 μM) | < 100 nM | < 100 nM | 100 to 1000 nM |
| COc1ccc2c(c1C(=O)O)OB(O)[C@@H](Sc1nnc(SC(CN)CN)s1)C2 [Compound 109, (3R)-3-[[5-[2-amino-1-(aminomethyl)ethyl]sulfanyl-1,3,4-thiadiazol-2-yl]sulfanyl]-2-hydroxy-7-methoxy-3,4-dihydro-1,2-benzoxaborinine-8-carboxylic acid] | < 10 nM | < 1000 nM | < 10 nM | Y (0.1 μM to 1 μM) | X (Less than 0.1 μM) | < 100 nM | < 100 nM | 100 to 1000 nM |
| COc1ccc2c(c1C(=O)O)OB(O)[C@@H](Sc1nnc(SCCN3CCOCC3)s1)C2 [Compound 110, (3R)-2-hydroxy-7-methoxy-3-[[5-(2-morpholinoethylsulfanyl)-1,3,4-thiadiazol-2-yl]sulfanyl]-3,4-dihydro-1,2-benzoxaborinine-8-carboxylic acid] | > 100 nM | < 1000 nM | > 100 nM | Y (0.1 μM to 1 μM) | X (Less than 0.1 μM) | < 100 nM | < 100 nM | < 100 nM |
| COc1ccc2c(c1C(=O)O)OB(O)[C@@H](Sc1nnc(Sc3nnc(N)s3)s1)C2 [Compound 111, (3R)-3-[[5-[(5-amino-1,3,4-thiadiazol-2-yl)sulfanyl]-1,3,4-thiadiazol-2-yl]sulfanyl]-2-hydroxy-7-methoxy-3,4-dihydro-1,2-benzoxaborinine-8-carboxylic acid] | > 100 nM | < 1000 nM | > 100 nM | Y (0.1 μM to 1 μM) | X (Less than 0.1 μM) | < 100 nM | > 1000 nM | 100 to 1000 nM |
| COc1ccc2c(c1C(=O)O)OB(O)[C@@H](Sc1nnc(SC3CCNCC3)s1)C2 [Compound 112, (3R)-2-hydroxy-7-methoxy-3-[[5-(4-piperidylsulfanyl)-1,3,4-thiadiazol-2-yl]sulfanyl]-3,4-dihydro-1,2-benzoxaborinine-8-carboxylic acid] | 10 to 100 nM | < 1000 nM | 10 to 100 nM | X (Less than 0.1 μM) | X (Less than 0.1 μM) | < 100 nM | < 100 nM | < 100 nM |
| COc1ccc2c(c1C(=O)O)OB(O)[C@@H](Sc1nnc(SCCCN)s1)C2 [Compound 113, (3R)-3-[[5-(3-aminopropylsulfanyl)-1,3,4-thiadiazol-2-yl]sulfanyl]-2-hydroxy-7-methoxy-3,4-dihydro-1,2-benzoxaborinine-8-carboxylic acid] | < 10 nM | < 1000 nM | < 10 nM | X (Less than 0.1 μM) | X (Less than 0.1 μM) | < 100 nM | < 100 nM | < 100 nM |
| COc1c(F)cc2c(c1C(=O)O)OB(O)[C@@H](Sc1nnc(N)s1)C2 [Compound 114, (3R)-3-[(5-amino-1,3,4-thiadiazol-2-yl)sulfanyl]-6-fluoro-2-hydroxy-7-methoxy-3,4-dihydro-1,2-benzoxaborinine-8-carboxylic acid] | 10 to 100 nM | < 1000 nM | 10 to 100 nM | Y (0.1 μM to 1 μM) | X (Less than 0.1 μM) | < 100 nM | < 100 nM | 100 to 1000 nM |
| Nc1nnc(S[C@H]2Cc3cc4nc[nH]c4c(C(=O)O)c3OB2O)s1 [Compound 115, (3R)-3-[(5-amino-1,3,4-thiadiazol-2-yl)sulfanyl]-2-hydroxy-4,8-dihydro-3H-oxaborinino[6,5-f]benzimidazole-9-carboxylic acid] | > 100 nM | < 1000 nM | > 100 nM | X (Less than 0.1 μM) | X (Less than 0.1 μM) | < 100 nM | < 100 nM | 100 to 1000 nM |
| NCCSc1nnc(S[C@H]2Cc3cccc(C(=O)O)c3OB2O)s1 [Compound 116, (3R)-3-[[5-(2-aminoethylsulfanyl)-1,3,4-thiadiazol-2-yl]sulfanyl]-2-hydroxy-3,4-dihydro-1,2-benzoxaborinine-8-carboxylic acid] | < 10 nM | < 1000 nM | < 10 nM | X (Less than 0.1 μM) | X (Less than 0.1 μM) | < 100 nM | < 100 nM | < 100 nM |
| COc1ccc2c(c1C(=O)O)OB(O)[C@@H](Sc1nnc(OCCN)s1)C2 [Compound 117, (3R)-3-[[5-(2-aminoethoxy)-1,3,4-thiadiazol-2-yl]sulfanyl]-2-hydroxy-7-methoxy-3,4-dihydro-1,2-benzoxaborinine-8-carboxylic acid] | < 10 nM | < 1000 nM | < 10 nM | Y (0.1 μM to 1 μM) | X (Less than 0.1 μM) | < 100 nM | < 100 nM | 100 to 1000 nM |
